Measured values reported in patent publication US20140206681A1, “BTK INHIBITORS” (priority 2013, published 2014).

Key:
HeLa cells = assay: [3H]Adenosine uptake functional cellular assay; type: cell-based; conditions: Homo sapiens, HeLa, accumulation of [3H]adenosine into HeLa cells; compound range 10 μM to […]; read-out: Adenosine uptake inhibition IC50
In short: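 Inhibition of adenosine uptake was measured in HeLa cells (ATCC CCL-2) by following accumulation of tritiated adenosine. Cells were kept overnight at 37° C. with 5% (v/v) CO2, then switched to 40 μL HBSS plus 5% (v/v) FBS. 20 μL of 500 nM [3H]adenosine was added, and uptake was counted on a Topcount NXT reader.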

[1] = target: T1, BTK enzyme (recombinant full-length BTK, hBTK) (Homo sapiens, UniProt Q06187); assay: BTK enzyme activity assay, LANCE TR-FRET; type: biochemical; conditions: 50 pM hBTK, 2 μM biotin-A5-peptide, 25 μM ATP; 60 min compound & enzyme incubation; read-out: IC50 BTK activity value
T1 construct: recombinant protein from baculovirus-transfected Sf9 cells: full-length BTK, 6HIS-tag cleaved; 6HIS (cleaved yes); made in house; host or cells: baculovirus-transfected Sf9 cells
T1 sequence (Q06187 whole entry): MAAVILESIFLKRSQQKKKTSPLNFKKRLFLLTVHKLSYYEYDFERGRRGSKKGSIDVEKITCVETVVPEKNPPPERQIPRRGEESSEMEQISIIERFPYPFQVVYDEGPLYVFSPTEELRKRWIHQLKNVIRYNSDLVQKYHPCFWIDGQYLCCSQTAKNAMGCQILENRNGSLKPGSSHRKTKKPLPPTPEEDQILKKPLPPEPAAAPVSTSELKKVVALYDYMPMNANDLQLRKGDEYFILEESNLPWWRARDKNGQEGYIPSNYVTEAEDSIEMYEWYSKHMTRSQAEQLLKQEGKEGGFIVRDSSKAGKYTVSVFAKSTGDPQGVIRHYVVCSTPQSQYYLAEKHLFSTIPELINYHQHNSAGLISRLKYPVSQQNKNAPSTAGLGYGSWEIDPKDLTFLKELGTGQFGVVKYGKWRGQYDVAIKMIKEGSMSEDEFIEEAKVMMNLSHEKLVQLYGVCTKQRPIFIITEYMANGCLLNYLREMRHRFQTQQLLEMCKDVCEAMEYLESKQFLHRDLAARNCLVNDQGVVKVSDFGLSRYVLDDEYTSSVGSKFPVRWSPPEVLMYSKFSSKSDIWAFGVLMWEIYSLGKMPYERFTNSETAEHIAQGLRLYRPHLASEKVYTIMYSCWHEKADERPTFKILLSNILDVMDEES

SMILES	IC50 (HeLa cells) [nM]	IC50 [1] [nM]
Nc1nccn2c([C@@H]3CC[C@H]4CCC(=O)N4C3)nc(-c3ccc(C(=O)Nc4nc(C(F)(F)F)c[nH]4)cc3)c12 [Example 177, 4-{8-amino-3-[(6R,8aS)-3-oxooctahydroindolizin-6-yl]imidazo[1,5-a]pyrazin-1-yl}-N-[4-(trifluoromethyl)-1H-imidazol-2-yl]benzamide]	3320	144
Nc1nccn2c([C@@H]3CC[C@H]4CCC(=O)N4C3)nc(-c3ccc(C(=O)Nc4cc(C(F)(F)F)n(C5CCCC5)n4)cc3)c12 [Example 180, 4-{8-amino-3-[(6R,8aS)-3-oxooctahydroindolizin-6-yl]imidazo[1,5-a]pyrazin-1-yl}-N-[1-cyclopentyl-5-(trifluoromethyl)-1H-pyrazol-3-yl]benzamide]	230	285
Cn1nc(NC(=O)c2ccc(-c3nc([C@@H]4CC[C@H]5CCC(=O)N5C4)n4c(Cl)cnc(N)c34)cc2)cc1C(F)(F)F [Example 183, 4-(8-amino-5-chloro-3-((6R,8aS)-3-oxooctahydroindolizin-6-yl)imidazo[1,5-a]pyrazin-1-yl)-N-(1-methyl-5-(trifluoromethyl)-1H-pyrazol-3-yl)benzamide]	470	0.64
CCn1nc(NC(=O)c2ccc(-c3nc([C@@H]4CC[C@H]5CCC(=O)N5C4)n4ccnc(N)c34)cc2)cc1C(F)(F)F [Example 185, 4-{8-amino-3-[(6R,8aS)-3-oxooctahydroindolizin-6-yl]imidazo[1,5-a]pyrazin-1-yl}-N-[1-ethyl-5-(trifluoromethyl)-1H-pyrazol-3-yl]benzamide]	5390	237
Cc1cc(C(=O)Nc2cc(C(F)(F)F)ccn2)ccc1-c1nc([C@@H]2CC[C@H]3CCC(=O)N3C2)n2ccnc(N)c12 [Example 187, 4-{8-amino-3-[(6R,8aS)-3-oxooctahydroindolizin-6-yl]imidazo[1,5-a]pyrazin-1-yl}-3-methyl-N-[4-(trifluoromethyl)pyridin-2-yl]benzamide]	310	0.46
COc1cc(C(=O)Nc2cc(C(F)(F)F)n(C)n2)ccc1-c1nc([C@@H]2CC[C@H]3CCC(=O)N3C2)n2ccnc(N)c12 [Example 188, 4-{8-amino-3-[(6R,8aS)-3-oxooctahydroindolizin-6-yl]imidazo[1,5-a]pyrazin-1-yl}-3-methoxy-N-[1-methyl-5-(trifluoromethyl)-1H-pyrazol-3-yl]benzamide]	3690	2.7
COc1cc(C(=O)Nc2cc(C(F)(F)F)n(C)n2)ccc1-c1nc([C@@H]2CC[C@H]3CCC(=O)N3C2)n2c(Cl)cnc(N)c12 [Example 189, 4-{8-amino-5-chloro-3-[(6R,8aS)-3-oxooctahydroindolizin-6-yl]imidazo[1,5-a]pyrazin-1-yl}-3-methoxy-N-[1-methyl-5-(trifluoromethyl)-1H-pyrazol-3-yl]benzamide]	1550	1.5

Further lines, results first:

IC50 (HeLa cells) [nM]	IC50 [1] [nM]	SMILES
5490	27.6	CCc1nsc(NC(=O)c2ccc(-c3nc([C@@H]4CC[C@H]5CCC(=O)N5C4)n4ccnc(N)c34)cc2)n1 [Example 178, 4-{8-amino-3-[(6R,8aS)-3-oxooctahydroindolizin-6-yl]imidazo[1,5-a]pyrazin-1-yl}-N-(3-ethyl-1,2,4-thiadiazol-5-yl)benzamide]
2370	68.9	CC(C)c1nsc(NC(=O)c2ccc(-c3nc([C@@H]4CC[C@H]5CCC(=O)N5C4)n4ccnc(N)c34)cc2)n1 [Example 179, 4-{8-amino-3-[(6R,8aS)-3-oxooctahydroindolizin-6-yl]imidazo[1,5-a]pyrazin-1-yl}-N-[3-(1-methylethyl)-1,2,4-thiadiazol-5-yl]benzamide]
3610	272	Cc1nnc(NC(=O)c2ccc(-c3nc([C@@H]4CC[C@H]5CCC(=O)N5C4)n4ccnc(N)c34)cc2)s1 [Example 182, 4-{8-amino-3-[(6R,8aS)-3-oxooctahydroindolizin-6-yl]imidazo[1,5-a]pyrazin-1-yl}-N-(5-methyl-1,3,4-thiadiazol-2-yl)benzamide]
